Experimental data taken from the supplement of paper PMC11061612.

Columns and labels:
Assay in all cases: Bliss excess, mean over the matrix (fraction); higher = more synergy
[1] = tested on: SNU-449 (Hepatocellular Carcinoma)
Summary of the method: (§1)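 Cell lines grown in DMEM/F12 or RPMI with 10% FBS were plated in 1536-well plates and held 24 hours at 37°C, 5% CO2 before 72 hours of exposure to two-drug dose matrices, with DMSO typically at 0.2%. CellTiter-Glo 2.0 luminescence gave viability, which was converted to inhibition. Vehicle wells were set to 0 and blank wells to 1. Combination Emax is the second-highest inhibition in the matrix, and Bliss excess is the observed combination effect minus the expected EA + EB − EA·EB, where EA and EB are the single-agent effects.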

[2] = tested on: WSU-NHL (B-Cell Non-Hodgkin's Lymphoma)
Summary of the method: as §1

[3] = tested on: LCLC-97TM1 (Non-Small Cell Lung Carcinoma)
Summary of the method: as §1

[4] = tested on: BPH-1 (Non-Cancerous)
Summary of the method: as §1

[5] = tested on: SAS (Oral Cavity Carcinoma)
Summary of the method: as §1

[6] = tested on: OVCAR-5 (Ovarian Carcinoma)
Summary of the method: as §1

[7] = tested on: EW-11 (Ewing's Sarcoma)
Summary of the method: as §1

[8] = tested on: OE21 (Esophageal Squamous Cell Carcinoma)
Summary of the method: as §1

[9] = tested on: BFTC-909 (Kidney Carcinoma)
Summary of the method: as §1

[10] = tested on: GAMG (Glioblastoma)
Summary of the method: as §1

[11] = tested on: HuH-7 (Hepatocellular Carcinoma)
Summary of the method: as §1

[12] = tested on: SW1573 (Lung Adenocarcinoma)
Summary of the method: as §1

[13] = tested on: FTC-133 (Thyroid Gland Carcinoma)
Summary of the method: as §1

[14] = tested on: Detroit562 (Head and Neck Carcinoma)
Summary of the method: as §1

[15] = tested on: YAPC (Pancreatic Carcinoma)
Summary of the method: as §1

[16] = tested on: HH (T-Cell Non-Hodgkin's Lymphoma)
Summary of the method: as §1

[17] = tested on: ALL-PO (B-Lymphoblastic Leukemia)
Summary of the method: as §1

[18] = tested on: LNZTA3WT4 (Low Grade Glioma)
Summary of the method: as §1

[19] = tested on: ESS-1 (Other Solid Carcinomas)
Summary of the method: as §1

[20] = tested on: HuCCT1 (Biliary Tract Carcinoma)
Summary of the method: as §1

SMILES | Bliss excess [1] | Bliss excess [2] | Bliss excess [3] | Bliss excess [4] | Bliss excess [5] | Bliss excess [6] | Bliss excess [7] | Bliss excess [8] | Bliss excess [9] | Bliss excess [10] | Bliss excess [11] | Bliss excess [12] | Bliss excess [13] | Bliss excess [14] | Bliss excess [15] | Bliss excess [16] | Bliss excess [17] | Bliss excess [18] | Bliss excess [19] | Bliss excess [20]
Cc1cc2ncnn2cc1Nc1ncc2c(n1)n(C1CCOCC1)c(=O)n2C [AZD7648] + CCN(CCO)CCCOc1ccc2c(Nc3cc(CC(=O)Nc4cccc(F)c4)[nH]n3)ncnc2c1 [AZD2811] (first compound max 10 µM, 7x7, partner max 1 µM) | 0.0117 | -0.0635 | 0.0467 | 0.0033 | 0.0058 | 0.043 | -0.0298 | 0.0379 | 0.0076 | 0.0192 | -0.0065 | 0.0327 | 0.0066 | -0.0142 | 0.0032 | -0.0598 | 0.0236 | 0.0063 | 0.128 | 0.0401
CN(CCO)CC[C@H](CSc1ccccc1)Nc1ccc(S(=O)(=O)NC(=O)c2ccc(N3CCC([C@@H](O)c4ccccc4-c4ccc(Cl)cc4)CC3)cc2)cc1S(=O)(=O)C(F)(F)F [AZD4320] + CC(=O)O[C@H]1C(=O)[C@@]2(C)[C@H]([C@H](OC(=O)c3ccccc3)[C@]3(O)C[C@H](OC(=O)[C@H](O)[C@@H](NC(=O)c4ccccc4)c4ccccc4)C(C)=C1C3(C)C)[C@]1(OC(C)=O)CO[C@@H]1C[C@@H]2O [Paclitaxel] (first compound max 1 µM, 7x7, partner max 3 µM) | -0.0162 | 0.0294 | – | – | 0.0322 | 0.0576 | 0.0303 | – | – | 0.095 | – | – | – | – | -0.0321 | 0.254 | – | 0.0016 | 0.0663 | 0.0276
C[C@@H](c1ccc2nccn2c1)n1nnc2ncc(-c3cnn(C)c3)nc21 [Savolitinib] + Cc1c2c(nn1C)CSCc1cc(n(C)n1)CSc1cc(c3ccccc3c1)OCCCc1c(C(=O)O)n(C)c3c-2c(Cl)ccc13 [AZD5991] (first compound max 1 µM, 7x7, partner max 1 µM) | -0.0432 | -0.0467 | -0.0311 | -0.0457 | -0.0341 | -0.0536 | 0.0361 | -0.0479 | -0.0074 | -0.0209 | -0.0276 | -0.0475 | -0.0511 | 0.0497 | -0.0425 | -0.0258 | -0.0254 | -0.0247 | -0.0432 | -0.0556
CN(CCO)CC[C@H](CSc1ccccc1)Nc1ccc(S(=O)(=O)NC(=O)c2ccc(N3CCC([C@@H](O)c4ccccc4-c4ccc(Cl)cc4)CC3)cc2)cc1S(=O)(=O)C(F)(F)F [AZD4320] + Cc1cc2ncnn2cc1Nc1ncc2c(n1)n(C1CCOCC1)c(=O)n2C [AZD7648] (first compound max 1 µM, 7x7, partner max 10 µM) | -0.0811 | -0.0087 | -0.0214 | -0.0325 | -0.0533 | -0.0452 | -0.0468 | -0.0187 | -0.0094 | -0.0633 | 0.004 | -0.0592 | -0.0097 | -0.0281 | -0.0465 | -0.0459 | 0.0085 | -0.0358 | -0.0373 | -0.0407
Cc1cc2ncnn2cc1Nc1ncc2c(n1)n(C1CCOCC1)c(=O)n2C [AZD7648] + CN(C)CCCOc1ccc(-c2ccc3ncc4c(c3c2)n(C2CCOCC2)c(=O)n4C)cn1 [AZD0156] (first compound max 10 µM, 7x7, partner max 1 µM) | -0.0457 | -0.0531 | -0.0042 | 0.0049 | 0.0623 | -0.0244 | -0.0549 | -0.0629 | -0.0032 | -0.058 | -0.006 | -0.0114 | 0.0239 | 0.0129 | -0.0126 | -0.0338 | 0.0524 | 0.0113 | 0.0364 | 0.0032
CC(=O)c1c(C)c2cnc(Nc3ccc(N4CCNCC4)cn3)nc2n(C2CCCC2)c1=O [Palbociclib] + CN(CC[C@H](CSC1=CC=CC=C1)NC2=C(C=C(C=C2)S(=O)(=O)NC(=O)C3=CC=C(C=C3)N4CCC(CC4)[C@H](C5=CC=CC=C5C6=CC=C(C=C6)Cl)O)S(=O)(=O)C(F)(F)F)CCO [AZD4320] (first compound max 10 µM, 7x7, partner max 1 µM) | – | – | -0.0326 | -0.0818 | – | – | – | 0.0269 | -0.0576 | – | -0.0254 | -0.0486 | -0.0778 | 0.0001 | – | – | 0.0126 | – | – | –
Cc1nc(Nc2ncc(C(=O)Nc3c(C)cccc3Cl)s2)cc(N2CCN(CCO)CC2)n1 [Dasatinib] + CC(=O)Nc1cccc(-n2c(=O)n(C3CC3)c(=O)c3c(Nc4ccc(I)cc4F)n(C)c(=O)c(C)c32)c1 [Trametinib] (first compound max 2 µM, 7x7, partner max 1 µM) | -0.0631 | 0.0024 | 0.0455 | -0.0801 | 0.0083 | 0.0217 | -0.0404 | -0.0561 | -0.0139 | -0.018 | 0.0586 | -0.0715 | -0.0878 | -0.0007 | 0.0605 | -0.0188 | 0.0238 | -0.0794 | -0.0417 | -0.0272
N#Cc1cnc(Nc2cc(NC[C@H]3CNCCO3)c(C(F)(F)F)cn2)cn1 [SRA737] + CCc1c2c(nc3ccc(O)cc13)-c1cc3c(c(=O)n1C2)COC(=O)[C@]3(O)CC [SN-38] (first compound max 10 µM, 7x7, partner max 0.3 µM) | 0.0341 | -0.0324 | – | – | -0.0333 | -0.0048 | -0.132 | – | – | 0.0754 | – | – | – | – | -0.041 | 0.017 | – | -0.002 | -0.0091 | 0.0261
N#Cc1cnc(Nc2cc(NC[C@H]3CNCCO3)c(C(F)(F)F)cn2)cn1 [SRA737] + C=CCn1c(=O)c2cnc(Nc3ccc(N4CCN(C)CC4)cc3)nc2n1-c1cccc(C(C)(C)O)n1 [AZD1775] (first compound max 10 µM, partner max 1 µM) | 0.0354 | 0.187 | – | – | 0.0236 | 0.0274 | 0.0992 | – | – | 0.0904 | – | – | – | – | 0.0265 | 0.0569 | – | -0.0108 | 0.12 | -0.0292
COc1cc2c(cc1OCCCCCOc1cc3c(cc1OC)C(=O)N1C=C(C)C[C@H]1C=N3)N=C[C@@H]1CC(C)=CN1C2=O [SG3199] + O=C(c1cc(Cc2n[nH]c(=O)c3ccccc23)ccc1F)N1CCN(C(=O)C2CC2)CC1 [Olaparib] (first compound max 0.001 µM, 7x7, partner max 10 µM) | -0.0647 | -0.0156 | -0.0079 | 0.0391 | -0.03 | -0.0314 | -0.051 | -0.0537 | -0.0308 | -0.0494 | -0.0363 | -0.0312 | -0.013 | -0.0252 | -0.0534 | -0.0344 | -0.0276 | -0.0444 | -0.0118 | -0.0309
Cc1cc2ncnn2cc1Nc1ncc2c(n1)n(C1CCOCC1)c(=O)n2C [AZD7648] + C[C@@H]1COCCN1C2=NC(=NC(=C2)C3(CC3)[S@](=N)(=O)C)C4=C5C=CNC5=NC=C4 [AZD6738] (first compound max 10 µM, 7x7, partner max 10 µM) | 0.0318 | -0.0181 | 0.0376 | -0.0251 | 0.0211 | 0.0263 | 0.0104 | -0.0793 | -0.0204 | 0.0064 | 0.0151 | 0.0293 | -0.0369 | 0.0217 | 0.0058 | 0.0284 | 0.0381 | -0.0165 | -0.0161 | -0.0087
Cc1cc2ncnn2cc1Nc1ncc2c(n1)n(C1CCOCC1)c(=O)n2C [AZD7648] + COc1cc([C@@H]2c3cc4c(cc3[C@@H](O[C@@H]3O[C@@H]5CO[C@@H](C)O[C@H]5[C@H](O)[C@H]3O)[C@H]3COC(=O)[C@H]23)OCO4)cc(OC)c1O [Etoposide] (first compound max 10 µM, 7x7, partner max 10 µM) | 0.0282 | 0.0848 | – | – | 0.118 | 0.0481 | 0.0002 | – | – | 0.147 | – | – | – | – | 0.0217 | -0.0254 | – | 0.102 | 0.113 | 0.0335
N#Cc1cnc(Nc2cc(NC[C@H]3CNCCO3)c(C(F)(F)F)cn2)cn1 [SRA737] + Nc1ccn([C@@H]2O[C@H](CO)[C@@H](O)C2(F)F)c(=O)n1 [Gemcitabine] (first compound max 10 µM, 7x7, partner max 0.3 µM) | 0.0307 | 0.017 | – | – | 0.105 | 0.0627 | -0.0557 | – | – | 0.182 | – | – | – | – | 0.0439 | 0.0878 | – | 0.0301 | 0.0477 | 0.0507
Cc1cc2ncnn2cc1Nc1ncc2c(n1)n(C1CCOCC1)c(=O)n2C [AZD7648] + O=C(c1cc(Cc2n[nH]c(=O)c3ccccc23)ccc1F)N1CCN(C(=O)C2CC2)CC1 [Olaparib] (first compound max 10 µM, 7x7, partner max 10 µM) | -0.0525 | -0.057 | -0.0218 | 0.0337 | -0.0245 | -0.0349 | -0.0826 | -0.088 | -0.037 | -0.0608 | -0.0389 | -0.0158 | -0.0306 | -0.0108 | -0.0521 | -0.0269 | -0.0202 | -0.0341 | -0.0721 | -0.028
C[C@@H](c1ccc2nccn2c1)n1nnc2ncc(-c3cnn(C)c3)nc21 [Savolitinib] + CN(CC[C@H](CSC1=CC=CC=C1)NC2=C(C=C(C=C2)S(=O)(=O)NC(=O)C3=CC=C(C=C3)N4CCC(CC4)[C@H](C5=CC=CC=C5C6=CC=C(C=C6)Cl)O)S(=O)(=O)C(F)(F)F)CCO [AZD4320] (first compound max 1 µM, 7x7, partner max 1 µM) | – | – | -0.0311 | -0.0802 | – | – | – | -0.043 | -0.0417 | – | -0.0064 | -0.0657 | -0.056 | -0.0189 | – | – | -0.0307 | – | – | –
COc1nnc2ccc(N3CCC(c4ccc(OCCN5CCN(C)C(=O)[C@H]5C)cc4)CC3)nn12 [AZD5153] + CN(CC[C@H](CSC1=CC=CC=C1)NC2=C(C=C(C=C2)S(=O)(=O)NC(=O)C3=CC=C(C=C3)N4CCC(CC4)[C@H](C5=CC=CC=C5C6=CC=C(C=C6)Cl)O)S(=O)(=O)C(F)(F)F)CCO [AZD4320] (first compound max 1 µM, 7x7, partner max 1 µM) | – | – | -0.0034 | 0.0728 | – | – | – | 0.0129 | 0.0663 | – | 0.11 | 0.089 | 0.112 | 0.0847 | – | – | 0.0079 | – | – | –
